In PubChem BioAssay (NCI):
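Tested at 5 concentrations; 48 h exposure; 96-well plates; endpoints linearly interpolated, else capped at highest concentration. At the TGI there is no net growth.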

Experiments:
Test in all cases: growth of human tumour cells (NCI), 48 h
[1] = test system: 786-0 renal
[2] = test system: A498 renal
[3] = test system: ACHN renal
[4] = test system: CAKI-1 renal
[5] = test system: CCRF-CEM leukemia
[6] = test system: DU-145 prostate
[7] = test system: EKVX NSCLC
[8] = test system: HCC-2998 colon
[9] = test system: HCT-116 colon
[10] = test system: HCT-15 colon
[11] = test system: HL-60(TB) leukemia
[12] = test system: HOP-62 NSCLC
[13] = test system: HOP-92 NSCLC
[14] = test system: HS 578T breast
[15] = test system: HT29 colon
[16] = test system: IGROV1 ovarian
[17] = test system: K-562 leukemia
[18] = test system: KM12 colon
[19] = test system: LOX IMVI melanoma
[20] = test system: M14 melanoma
[21] = test system: MCF7 breast
[22] = test system: MDA-MB-231 breast
[23] = test system: MDA-MB-435
[24] = test system: MDA-N
[25] = test system: MOLT-4 leukemia
[26] = test system: NCI-H226 lung
[27] = test system: NCI-H23 lung
[28] = test system: NCI-H460 lung
[29] = test system: NCI-H522 lung
[30] = test system: NCI/ADR-RES ovarian
[31] = test system: OVCAR-3 ovarian
[32] = test system: OVCAR-4 ovarian
[33] = test system: OVCAR-5 ovarian
[34] = test system: OVCAR-8 ovarian
[35] = test system: PC-3 prostate
[36] = test system: RPMI-8226 leukemia
[37] = test system: RXF 393 renal
[38] = test system: SF-268 CNS
[39] = test system: SF-295 CNS
[40] = test system: SF-539 CNS
[41] = test system: SK-MEL-2 melanoma
[42] = test system: SK-MEL-28 melanoma
[43] = test system: SK-MEL-5 melanoma
[44] = test system: SK-OV-3 ovarian
[45] = test system: SR leukemia
[46] = test system: SW-620 colon
[47] = test system: T-47D breast
[48] = test system: TK-10 renal
[49] = test system: U251 CNS
[50] = test system: UACC-257 melanoma
[51] = test system: UO-31 renal
[52] = test system: A549 NSCLC
[53] = test system: COLO 205 colon
[54] = test system: MALME-3M melanoma
[55] = test system: SN12C renal
[56] = test system: SNB-19 CNS
[57] = test system: UACC-62 melanoma
[58] = test system: SNB-75 CNS

CC1=NN(c2cccc(Cl)c2)C2(SCC(=O)N2c2nc3ccccc3s2)/C1=C\c1ccc(N(C)C)cc1 (stereo not given)
TGI [1]: > 100 µM
TGI [2]: 87.9 µM
TGI [3]: 84.1 µM
TGI [4]: > 100 µM
TGI [5]: > 100 µM
TGI [6]: > 100 µM
TGI [7]: > 100 µM
TGI [8]: > 100 µM
TGI [9]: > 100 µM
TGI [10]: > 100 µM
TGI [11]: > 100 µM
TGI [12]: 48.6 µM
TGI [13]: 79.9 µM
TGI [14]: 75.7 µM
TGI [15]: > 100 µM
TGI [16]: > 100 µM
TGI [17]: > 100 µM
TGI [18]: > 100 µM
TGI [19]: > 100 µM
TGI [20]: > 100 µM
TGI [21]: > 100 µM
TGI [22]: > 100 µM
TGI [23]: > 100 µM
TGI [24]: > 100 µM
TGI [25]: > 100 µM
TGI [26]: > 100 µM
TGI [27]: > 100 µM
TGI [28]: > 100 µM
TGI [29]: > 100 µM
TGI [30]: > 100 µM
TGI [31]: > 100 µM
TGI [32]: > 100 µM
TGI [33]: > 100 µM
TGI [34]: > 100 µM
TGI [35]: > 100 µM
TGI [36]: > 100 µM
TGI [37]: 44.8 µM
TGI [38]: > 100 µM
TGI [39]: > 100 µM
TGI [40]: > 100 µM
TGI [41]: 57.5 µM
TGI [42]: > 100 µM
TGI [43]: > 100 µM
TGI [44]: 39.6 µM
TGI [45]: > 100 µM
TGI [46]: > 100 µM
TGI [47]: > 100 µM
TGI [48]: > 100 µM
TGI [49]: > 100 µM
TGI [50]: > 100 µM
TGI [51]: > 100 µM

CN(C)CC1CN=C(N)O1 (stereo not given)
TGI [1]: > 100 µM
TGI [2]: > 100 µM
TGI [52]: > 100 µM
TGI [3]: > 100 µM
TGI [4]: > 100 µM
TGI [5]: > 100 µM
TGI [53]: > 100 µM
TGI [6]: > 100 µM
TGI [7]: > 100 µM
TGI [8]: > 100 µM
TGI [9]: > 100 µM
TGI [10]: > 100 µM
TGI [12]: > 100 µM
TGI [13]: > 100 µM
TGI [17]: > 100 µM
TGI [18]: > 100 µM
TGI [19]: > 100 µM
TGI [20]: > 100 µM
TGI [54]: > 100 µM
TGI [21]: > 100 µM
TGI [22]: > 100 µM
TGI [23]: > 100 µM
TGI [24]: > 100 µM
TGI [25]: > 100 µM
TGI [26]: > 100 µM
TGI [27]: > 100 µM
TGI [28]: > 100 µM
TGI [29]: > 100 µM
TGI [30]: > 100 µM
TGI [31]: > 100 µM
TGI [32]: > 100 µM
TGI [33]: > 100 µM
TGI [35]: > 100 µM
TGI [36]: > 100 µM
TGI [37]: > 100 µM
TGI [38]: > 100 µM
TGI [39]: > 100 µM
TGI [40]: > 100 µM
TGI [41]: > 100 µM
TGI [42]: > 100 µM
TGI [43]: > 100 µM
TGI [44]: > 100 µM
TGI [55]: > 100 µM
TGI [56]: > 100 µM
TGI [46]: > 100 µM
TGI [48]: > 100 µM
TGI [49]: > 100 µM
TGI [50]: > 100 µM
TGI [57]: > 100 µM
TGI [51]: > 100 µM

CC(C)(C)[Si](C)(C)Oc1cc(CO)cc2c1cc(=N)o[n+]2[O-]
TGI [1]: > 10 µM
TGI [52]: > 10 µM
TGI [4]: > 10 µM
TGI [5]: > 10 µM
TGI [53]: > 10 µM
TGI [6]: > 10 µM
TGI [7]: > 10 µM
TGI [8]: > 10 µM
TGI [10]: > 10 µM
TGI [11]: > 10 µM
TGI [12]: > 10 µM
TGI [15]: > 10 µM
TGI [16]: > 10 µM
TGI [17]: > 10 µM
TGI [18]: > 10 µM
TGI [20]: > 10 µM
TGI [54]: > 10 µM
TGI [21]: 9.25 µM
TGI [22]: > 10 µM
TGI [24]: > 10 µM
TGI [25]: 9.28 µM
TGI [27]: > 10 µM
TGI [34]: > 10 µM
TGI [35]: > 10 µM
TGI [36]: > 10 µM
TGI [37]: > 10 µM
TGI [38]: > 10 µM
TGI [39]: > 10 µM
TGI [42]: > 10 µM
TGI [43]: > 10 µM
TGI [44]: > 10 µM
TGI [55]: > 10 µM
TGI [58]: > 10 µM
TGI [45]: 7.58 µM
TGI [46]: > 10 µM
TGI [47]: > 10 µM
TGI [48]: > 10 µM
TGI [50]: > 10 µM
TGI [57]: > 10 µM
